Results published in publication PMC7582876, “Antiproliferative Properties of a Few Auranofin-Related Gold(I) and Silver(I) Complexes in Leukemia Cells and their Interferences with the Ubiquitin Proteasome System” (Molecules, 2020).

Key:
[1] = molecular target: T1, trypsin-like (T-L) activity of human 20S proteasome (Homo sapiens, UniProt Q99436); assay: Inhibition of trypsin-like activity of 20S proteasome (Boc-Leu-Arg-Arg-AMC); format: biochemical; settings: for IC50: 10 min, no pre-incubation, 30 °C; for T-L inhibition at 10 µM: over 10 min
T1 construct: 20S proteasome, isolated and purified from human erythrocytes; purchased Biomol GmbH, Hamburg, Germany; host or cells: human erythrocytes (native complex)
Protocol: (§1) 20S proteasome, isolated and purified from human erythrocytes, was obtained from a commercial source (Biomol GmbH, Hamburg, Germany), as well as the peptidic substrates (Bachem, Bubendorf, Switzerland) Suc-Leu-Leu-Val-Tyr-AMC, Boc-Leu-Arg-Arg-AMC and Cbz-Leu-Leu-Glu-AMC for ChT-L, T-L and PGPH (C-L) activity of the enzyme, respectively. The three distinct proteolytic activities of the 20S proteasome were measured by monitoring the hydrolysis of the substrates and detecting the fluorescence of the common product released, i.e., 7-amino-4-methyl coumarin (7-AMC), by means of an Infinite 200 PRO microplate reader (Tecan, Männedorf, Switzerland) at 30 °C with a 380-nm excitation filter and a 460-nm emission filter. All gold and silver complexes were tested against the three proteolytic activities of the 20S proteasome and against Cat-B, Cat-L and bovine pancreatic α-chymotrypsin at 10 µM concentrations over a period of 10 min using an equivalent amount of DMSO as a negative control. […] The IC50 values were calculated with the program GraFit® using the two-parameter equation. More detailed experimental protocols for the assays against each proteolytic activity of the 20S proteasome, as well as against bovine pancreatic α-chymotrypsin, are already reported elsewhere (see also Supplementary Materials). Cat-B and Cat-L were purchased from Calbiochem, Darmstadt, Germany, and the related assays were performed as previously described. The employed fluorogenic substrate for both cysteine proteases was Cbz-Phe-Arg-AMC (80 µM for Cat-B; 5 µM for Cat-L). […]
Inhibition assay for the Tryptic Activity of the 20S Proteasome
mg∙mL−1 with the test compound present at 10 µM (screening assay) or at variable
concentrations (continuous assay). The reaction buffer consisted of 50 mM Tris buffer pH
substrate hydrolysis ([…]) was monitored continuously over a period of 10 min. […]

[2] = molecular target: T2, peptidyl-glutamyl peptide-hydrolyzing (PGPH or caspase-like C-L) activity of human 20S proteasome (Homo sapiens, UniProt P28072); assay: Inhibition of peptidyl-glutamyl peptide-hydrolyzing activity of 20S proteasome (Cbz-Leu-Leu-Glu-AMC); format: biochemical; settings: for PGPH (C-L) inhibition at 10 µM: over 10 min; for IC50: 10 min, no pre-incubation, 30 °C
T2 construct: 20S proteasome, isolated and purified from human erythrocytes; purchased Biomol GmbH, Hamburg, Germany; host or cells: human erythrocytes (native complex)
Protocol: as §1
Inhibition assay for the Post-Glutamyl Peptide Hydrolyzing Activity of the 20S
with the test compound present at 10 µM (screening assay) or variable concentrations. The
reaction buffer consisted of 50 mM Tris buffer pH 7.5 containing 25 mM KCl, 10 mM NaCl,
1 mM MgCl2, 0.03% SDS, 5% DMSO. Product release from substrate hydrolysis ([…])
was monitored continuously over a period of 10 min.

[3] = molecular target: T3, human cathepsin-B (Cat-B) (Homo sapiens, UniProt P07858); assay: Cathepsin-B inhibition screening; format: biochemical; settings: over 10 min
T3 construct: purchased Calbiochem, Darmstadt, Germany; host or cells: recombinant
Protocol: The IC50 values were calculated with the program GraFit® using the two-parameter equation. More detailed experimental protocols for the assays against each proteolytic activity of the 20S proteasome, as well as against bovine pancreatic α-chymotrypsin, are already reported elsewhere (see also Supplementary Materials). Cat-B and Cat-L were purchased from Calbiochem, Darmstadt, Germany, and the related assays were performed as previously described. […] Assay for Bovine Pancreatic α-Chymotrypsin Inhibition The enzyme ([…]) was incubated at 20 °C with the test compound present at 10 μM (screening assay). The reaction buffer consisted of 50 mM Tris buffer pH 8.0 containing 100 mM NaCl, 5 mM EDTA and 7.5% DMSO. Product release from substrate hydrolysis ([…] final concentration, Suc-[…] from Bachem) was determined over a period of 10 min. Assay for Cathepsin-B and Cathepsin-L Inhibition Assays were performed at 25 °C in a 20 mM Tris-HCl buffer, pH 6.0, containing 5 mM […] Substrate (Cbz-Phe-Arg-AMC for both enzymes) and inhibitor stock solutions were prepared in DMSO (10% final concentration) and were diluted with assay buffer; enzymes were held in buffer. The final substrate concentration for inhibition assays was between 10.0 and 81.0 […] for CB (recombinant, human liver). […] μM and 140 μM. Product release from substrate hydrolysis was determined over a period of 10 min.

[4] = system: human cathepsin-L (Cat-L); assay: Cathepsin-L inhibition screening; format: biochemical; settings: over 10 min
Protocol: 20S proteasome, isolated and purified from human erythrocytes, was obtained from a commercial source (Biomol GmbH, Hamburg, Germany), as well as the peptidic substrates (Bachem, Bubendorf, Switzerland) Suc-Leu-Leu-Val-Tyr-AMC, Boc-Leu-Arg-Arg-AMC and Cbz-Leu-Leu-Glu-AMC for ChT-L, T-L and PGPH (C-L) activity of the enzyme, respectively. The three distinct proteolytic activities of the 20S proteasome were measured by monitoring the hydrolysis of the substrates and detecting the fluorescence of the common product released, i.e., 7-amino-4-methyl coumarin (7-AMC), by means of an Infinite 200 PRO microplate reader (Tecan, Männedorf, Switzerland) at 30 °C with a 380-nm excitation filter and a 460-nm emission filter. All gold and silver complexes were tested against the three proteolytic activities of the 20S proteasome and against Cat-B, Cat-L and bovine pancreatic α-chymotrypsin at 10 µM concentrations over a period of 10 min using an equivalent amount of DMSO as a negative control. […]. The IC50 values were calculated with the program GraFit® using the two-parameter equation. More detailed experimental protocols for the assays against each proteolytic activity of the 20S proteasome, as well as against bovine pancreatic α-chymotrypsin, are already reported elsewhere (see also Supplementary Materials). Cat-B and Cat-L were purchased from Calbiochem, Darmstadt, Germany, and the related assays were performed as previously described. The employed fluorogenic substrate for both cysteine proteases was Cbz-Phe-Arg-AMC (80 µM for Cat-B; 5 µM for Cat-L). […]
Assay for Cathepsin-B and Cathepsin-L Inhibition
Assays were performed at 25 °C in a 20 mM Tris-HCl buffer, pH 6.0, containing 5 mM
EDTA, 2.5 mM DTT, 200 mM NaCl, 0.005% Brij 35 in a total volume of 285 µL. Substrate
(Cbz-Phe-Arg-AMC for both enzymes) and inhibitor stock solutions were prepared in
DMSO (10% final concentration) and were diluted with assay buffer; enzymes were held
for CB (recombinant, human liver). Inhibitors were used at concentrations between 0.35
µM and 140 µM. Product release from substrate hydrolysis was determined over a period

[5] = system: human fibroblast cells (HDF); parameters: method as in PMID 29057040; settings: previously assessed, ref [18], read-out: IC50, cell viability of healthy cells (HDF); cited from earlier work
[6] = system: human embryonic kidney cells (HEK293); parameters: method as in PMID 29057040; settings: previously assessed, ref [18], read-out: IC50, cell viability of healthy cells (HEK293); cited from earlier work

Compound	IC50 [1] [µM]	PGPH (C-L) inhibition at 10 µM [2]	Cat-B Inhibition (%) at 10 µM [3]	Cat-L Inhibition (%) at 10 µM [4]	IC50 [2] [µM]	IC50 [5] [µM]	IC50 [6] [µM]	T-L inhibition at 10 µM [1]
CC[PH](CC)(CC)[Ag][I] [Ag(PEt3)I]	2.27 ± 0.78	n.i.	n.i.	n.i.	–	–	–	–
CC[PH](CC)(CC)[Ag][Cl] [Ag(PEt3)Cl]	2.2 ± 1.3	n.i.	n.i.	n.i.	–	–	–	–
CCP(CC)CC.[Br][Au] [Au(PEt3)Br]	1.26 ± 0.12	–	31 ± 2.2%	n.i.	> 10	–	–	–
CCP(CC)CC.[Au+].[Cl-] [Au(PEt3)Cl]	1.25 ± 0.05	–	29 ± 0.2%	n.i.	> 10	> 5	> 5	–
CC(=O)OC[C@H]1O[C@@H]([S-])[C@H](OC(C)=O)[C@@H](OC(C)=O)[C@@H]1OC(C)=O.CCP(CC)CC.[Au+] [auranofin, Auranofin]	–	n.i.	n.i.	n.i.	–	> 5	> 5	n.i.
CC[P](CC)(CC)[Au][I] [Au(PEt3)I]	5.8 ± 0.3	–	29 ± 1.7%	n.i.	> 10	> 5	> 5	–
CC[PH](CC)(CC)[Ag][Br] [Ag(PEt3)Br]	2.65 ± 0.15	n.i.	n.i.	n.i.	–	–	–	–
CCP(CC)CC.CCP(CC)CC.O=[N+]([O-])[O-].[Ag+] [[Ag(PEt3)2]NO3]	–	n.i.	n.i.	20 ± 0.4%	–	–	–	n.i.
